Data taken from ChEMBL document CHEMBL6153089, “Design, Synthesis, and Biological Evaluation of Thieno[3,2-d]pyrimidine Derivatives as the First Bifunctional PI3Kδ Isoform Selective/Bromodomain and Extra-Terminal Inhibitors” (J Med Chem, 2025).
Values belong to the compound of their own block, whether it stands above or below them.

Tests used:
[1] = molecular target: PI3-kinase p110-delta/p85-alpha (Homo sapiens) (UniProt P27986+O00329); test: Inhibition of p110delta/p85alpha (unknown origin) at 100 nM incubated for 2 hrs in presence of ATP by ADP-kinaseGlo reagent based assay relative to control; assay type: protein-complex assay
[2] = molecular target: T1, Bromodomain-containing protein 4 (Homo sapiens, UniProt O60885); test: Inhibition of His-tagged BRD4-BD1 (unknown origin) at 10 nM incubated for 30 mins by Alphascreen assay relative to control
[3] = system: SUD4; test: Induction of apoptosis in human SU-DHL-4 cells assessed as late apoptotic cells at 1 uM incubated for 24 hrs by Annexin V-FITC/PI staining based flow cytometric analysis (reference value: 6.74 %); assay type: functional
[4] = molecular target: T1, Bromodomain-containing protein 4; test: Inhibition of His-tagged BRD4-BD2 (unknown origin) incubated for 30 mins in presence of ATP by Alphascreen assay
[5] = system: SUD4; test: Induction of apoptosis in human SU-DHL-4 cells assessed as necrotic cells at 1 uM incubated for 24 hrs by Annexin V-FITC/PI staining based flow cytometric analysis (reference value: 0.642 %); assay type: functional
[6] = system: SU-DHL-6; test: Antitumor activity against human SU-DHL-6 cells xenografted in female BALB/c mouse model assessed as downregulation of Ki67 level in tumor at 20 mg/kg, po administered once daily via gavage for 15 days by immunohistochemical staining based analysis; assay type: functional, organism-based; conditions: time 15.0 day
[7] = molecular target: PI3-kinase p110-delta/p85-alpha (Homo sapiens, UniProt O00329); test: Inhibition of p110delta/p85alpha (unknown origin) incubated for 2 hrs in presence of ATP by ADP-kinaseGlo reagent based assay; assay type: protein-complex assay
[8] = Toxicity in female BALB/c mouse model xenografted with human SU-DHL-6 cells assessed as effect on heart histopathology at 20 mg/kg, po administered once daily via gavage for 15 days by H and E staining based analysis; assay type: organism-based; conditions: in vivo, 360 h, time 15 day
[9] = system: SUD4; test: Induction of apoptosis in human SU-DHL-4 cells assessed as viable cells at 1 uM incubated for 24 hrs by Annexin V-FITC/PI staining based flow cytometric analysis (reference value: 65.2 %); assay type: functional; conditions: read-out: Activity
[10] = molecular target: Phosphatidylinositol 4,5-bisphosphate 3-kinase catalytic subunit beta isoform (Homo sapiens, UniProt P42338); test: Inhibition of PI3Kbeta (unknown origin) incubated for 2 hrs in presence of ATP by ADP-kinaseGlo reagent based assay
[11] = system: SU-DHL-6; test: Antiproliferative against activity human SU-DHL-6 cells assessed as inhibition of cell growth incubated for 72 hrs by Celltiter-luminescence analysis; assay type: functional, cell-based; conditions: SU-DHL-6, 72 h
[12] = molecular target: Serine/threonine-protein kinase mTOR (Homo sapiens, UniProt P42345); test: Inhibition of mTOR (unknown origin) incubated for 2 hrs in presence of ATP by ADP-kinaseGlo reagent based assay
[13] = system: SU-DHL-6; test: Induction of apoptosis in human SU-DHL-6 cells assessed as early apoptotic cells at 1 uM incubated for 24 hrs by Annexin V-FITC/PI staining based flow cytometric analysis (reference value: 32.1 %); assay type: functional
[14] = molecular target: Bromodomain-containing protein 3 (Homo sapiens, UniProt Q15059); test: Inhibition of His-tagged BRD3-BD1 (unknown origin) incubated for 30 mins in presence of ATP by Alphascreen assay
[15] = system: SUD4; test: Antiproliferative against activity human SU-DHL-4 cells assessed as inhibition of cell growth incubated for 72 hrs by Celltiter-luminescence analysis; assay type: functional, cell-based; conditions: SU-DHL-4, 72 h
[16] = system: SU-DHL-6; test: Induction of apoptosis in human SU-DHL-6 cells assessed as late apoptotic cells at 1 uM incubated for 24 hrs by Annexin V-FITC/PI staining based flow cytometric analysis (reference value: 6.43 %); assay type: functional
[17] = Toxicity in female BALB/c mouse model xenografted with human SU-DHL-6 cells assessed as effect on lung histopathology at 20 mg/kg, po administered once daily via gavage for 15 days by H and E staining based analysis; assay type: organism-based; conditions: in vivo, 360 h, time 15 day
[18] = system: WI-38; test: Cytotoxicity against human WI-38 cells assessed as inhibition of cell growth at 1 uM incubated for 72 hrs by Celltiter-luminescence analysis; assay type: toxicity, cell-based; conditions: wi-38, 72 h
[19] = Toxicity in female BALB/c mouse model xenografted with human SU-DHL-6 cells assessed as effect on liver histopathology at 20 mg/kg, po administered once daily via gavage for 15 days by H and E staining based analysis; assay type: organism-based; conditions: in vivo, 360 h, time 15 day
[20] = system: SU-DHL-6; test: Induction of apoptosis in human SU-DHL-6 cells assessed as viable cells at 1 uM incubated for 24 hrs by Annexin V-FITC/PI staining based flow cytometric analysis (reference value: 61.2 %); assay type: functional; conditions: read-out: Activity
[21] = molecular target: T1, Bromodomain-containing protein 4; test: Inhibition of His-tagged BRD4-BD1 (unknown origin) incubated for 30 mins in presence of ATP by Alphascreen assay
[22] = Toxicity in female BALB/c mouse model xenografted with human SU-DHL-6 cells assessed as effect on spleen histopathology at 20 mg/kg, po administered once daily via gavage for 15 days by H and E staining based analysis; assay type: organism-based; conditions: in vivo, 360 h, time 15 day
[23] = Toxicity in female BALB/c mouse model xenografted with human SU-DHL-6 cells assessed as effect on kidney histopathology at 20 mg/kg, po administered once daily via gavage for 15 days by H and E staining based analysis; assay type: organism-based; conditions: in vivo, 360 h, time 15 day
[24] = system: SUD4; test: Induction of apoptosis in human SU-DHL-4 cells assessed as early apoptotic cells at 1 uM incubated for 24 hrs by Annexin V-FITC/PI staining based flow cytometric analysis (reference value: 25.3 %); assay type: functional
[25] = system: HUVEC; test: Cytotoxicity against HUVEC cells assessed as inhibition of cell growth at 1 uM incubated for 72 hrs by Celltiter-luminescence analysis; assay type: toxicity, cell-based; conditions: human
[26] = molecular target: Phosphatidylinositol 4,5-bisphosphate 3-kinase catalytic subunit gamma isoform (Homo sapiens, UniProt P48736); test: Inhibition of PI3Kgamma (unknown origin) incubated for 2 hrs in presence of ATP by ADP-kinaseGlo reagent based assay
[27] = system: SU-DHL-6; test: Induction of apoptosis in human SU-DHL-6 cells assessed as necrotic cells at 1 uM incubated for 24 hrs by Annexin V-FITC/PI staining based flow cytometric analysis (reference value: 0.246 %); assay type: functional
[28] = molecular target: Bromodomain testis-specific protein (Homo sapiens, UniProt Q58F21); test: Inhibition of His-tagged BRDT-BD1 (unknown origin) incubated for 30 mins in presence of ATP by Alphascreen assay
[29] = system: SU-DHL-6; test: Antitumor activity against human SU-DHL-6 cells xenografted in female BALB/c mouse model assessed as tumor growth inhibition at 20 mg/kg, po administered once daily via gavage for 15 days relative to control; assay type: functional; conditions: SU-DHL-6, 360 h, time 15 day, read-out: TGI
[30] = Toxicity in female BALB/c mouse model xenografted with human SU-DHL-6 cells assessed as effect on body weight at 20 mg/kg, po administered once daily via gavage for 15 days; assay type: organism-based; conditions: in vivo, 360 h, time 15 day
[31] = molecular target: Bromodomain-containing protein 2 (Homo sapiens, UniProt P25440); test: Inhibition of His-tagged BRD2-BD1 (unknown origin) incubated for 30 mins in presence of ATP by Alphascreen assay
[32] = system: SU-DHL-6; test: Antiproliferative against activity human SU-DHL-6 cells assessed as inhibition of cell growth incubated for 72 hrs in presence of 10:1 PI-3065:compound by Celltiter-luminescence analysis; assay type: functional, cell-based; conditions: SU-DHL-6, 72 h
[33] = system: SUD4; test: Antiproliferative against activity human SU-DHL-4 cells assessed as inhibition of cell growth incubated for 72 hrs in presence of 10:1 PI-3065:compound by Celltiter-luminescence analysis; assay type: functional, cell-based; conditions: SU-DHL-4, 72 h

Sequence of Bromodomain-containing protein 2 (P25440 whole entry): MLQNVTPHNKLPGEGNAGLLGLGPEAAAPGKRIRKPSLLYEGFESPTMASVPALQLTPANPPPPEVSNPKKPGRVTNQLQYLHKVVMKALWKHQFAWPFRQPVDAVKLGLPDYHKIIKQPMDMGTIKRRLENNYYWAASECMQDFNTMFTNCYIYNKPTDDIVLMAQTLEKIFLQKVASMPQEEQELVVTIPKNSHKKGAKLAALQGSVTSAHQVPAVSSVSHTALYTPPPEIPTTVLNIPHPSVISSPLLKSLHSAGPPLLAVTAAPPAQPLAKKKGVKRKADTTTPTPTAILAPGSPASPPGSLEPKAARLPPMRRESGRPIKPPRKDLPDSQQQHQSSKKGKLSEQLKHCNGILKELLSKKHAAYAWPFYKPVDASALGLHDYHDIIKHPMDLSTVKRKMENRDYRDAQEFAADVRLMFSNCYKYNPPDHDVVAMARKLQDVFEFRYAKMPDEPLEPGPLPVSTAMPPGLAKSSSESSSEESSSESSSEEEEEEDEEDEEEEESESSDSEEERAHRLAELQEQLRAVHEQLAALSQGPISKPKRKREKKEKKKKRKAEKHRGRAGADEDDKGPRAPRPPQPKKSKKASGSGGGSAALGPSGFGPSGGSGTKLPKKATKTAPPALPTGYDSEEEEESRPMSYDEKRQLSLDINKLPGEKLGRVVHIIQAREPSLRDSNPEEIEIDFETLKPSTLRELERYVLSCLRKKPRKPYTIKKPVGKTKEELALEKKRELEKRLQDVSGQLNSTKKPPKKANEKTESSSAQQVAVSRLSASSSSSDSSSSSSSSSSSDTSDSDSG
Sequence of Phosphatidylinositol 4,5-bisphosphate 3-kinase catalytic subunit beta isoform (P42338 whole entry, canonical isoform): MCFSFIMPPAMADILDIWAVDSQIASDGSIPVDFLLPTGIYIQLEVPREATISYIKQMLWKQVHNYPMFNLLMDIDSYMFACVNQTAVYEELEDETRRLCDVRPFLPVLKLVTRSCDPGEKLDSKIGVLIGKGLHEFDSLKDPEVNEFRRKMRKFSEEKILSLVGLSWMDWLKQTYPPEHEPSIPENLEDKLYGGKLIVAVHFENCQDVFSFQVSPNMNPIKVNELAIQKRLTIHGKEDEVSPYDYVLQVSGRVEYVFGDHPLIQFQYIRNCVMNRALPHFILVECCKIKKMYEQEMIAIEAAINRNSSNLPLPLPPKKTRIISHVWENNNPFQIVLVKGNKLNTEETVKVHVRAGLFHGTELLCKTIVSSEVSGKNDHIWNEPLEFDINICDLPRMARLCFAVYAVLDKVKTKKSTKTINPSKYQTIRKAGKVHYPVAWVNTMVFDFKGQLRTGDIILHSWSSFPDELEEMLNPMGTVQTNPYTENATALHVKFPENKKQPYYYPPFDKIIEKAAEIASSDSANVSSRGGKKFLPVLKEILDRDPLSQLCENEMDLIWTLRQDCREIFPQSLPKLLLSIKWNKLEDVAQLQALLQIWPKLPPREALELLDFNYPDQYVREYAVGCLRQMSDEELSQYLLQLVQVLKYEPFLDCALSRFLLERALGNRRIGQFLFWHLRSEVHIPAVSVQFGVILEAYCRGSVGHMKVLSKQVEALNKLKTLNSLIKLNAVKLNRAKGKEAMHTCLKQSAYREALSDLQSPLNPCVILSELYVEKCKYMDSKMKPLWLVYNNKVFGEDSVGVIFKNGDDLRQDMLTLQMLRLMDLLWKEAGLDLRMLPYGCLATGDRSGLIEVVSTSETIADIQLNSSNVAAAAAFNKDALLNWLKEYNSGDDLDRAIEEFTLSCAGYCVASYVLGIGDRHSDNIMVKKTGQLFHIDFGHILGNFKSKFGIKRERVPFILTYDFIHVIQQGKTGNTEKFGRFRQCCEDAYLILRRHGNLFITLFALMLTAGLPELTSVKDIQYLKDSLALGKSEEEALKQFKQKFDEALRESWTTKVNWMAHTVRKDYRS
Sequence of Bromodomain-containing protein 3 (Q15059 whole entry): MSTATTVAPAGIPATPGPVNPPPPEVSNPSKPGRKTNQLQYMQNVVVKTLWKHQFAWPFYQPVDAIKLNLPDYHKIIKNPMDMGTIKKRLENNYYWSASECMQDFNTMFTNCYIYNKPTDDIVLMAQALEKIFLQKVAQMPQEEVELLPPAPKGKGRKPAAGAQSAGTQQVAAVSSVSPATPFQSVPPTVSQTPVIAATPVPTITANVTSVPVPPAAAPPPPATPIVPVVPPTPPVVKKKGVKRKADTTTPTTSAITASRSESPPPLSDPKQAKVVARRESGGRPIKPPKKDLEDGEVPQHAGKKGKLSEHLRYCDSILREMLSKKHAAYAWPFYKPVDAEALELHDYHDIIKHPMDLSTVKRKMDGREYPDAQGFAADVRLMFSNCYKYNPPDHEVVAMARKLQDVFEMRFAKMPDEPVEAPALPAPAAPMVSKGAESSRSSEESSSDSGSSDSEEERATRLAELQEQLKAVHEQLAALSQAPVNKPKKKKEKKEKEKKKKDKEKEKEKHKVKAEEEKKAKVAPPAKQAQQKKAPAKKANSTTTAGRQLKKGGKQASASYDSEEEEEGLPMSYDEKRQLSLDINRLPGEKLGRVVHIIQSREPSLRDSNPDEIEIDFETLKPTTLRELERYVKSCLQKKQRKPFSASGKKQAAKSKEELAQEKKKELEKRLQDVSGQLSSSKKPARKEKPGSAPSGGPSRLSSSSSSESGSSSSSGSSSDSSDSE
Sequence of Phosphatidylinositol 4,5-bisphosphate 3-kinase catalytic subunit gamma isoform (P48736 whole entry, canonical isoform): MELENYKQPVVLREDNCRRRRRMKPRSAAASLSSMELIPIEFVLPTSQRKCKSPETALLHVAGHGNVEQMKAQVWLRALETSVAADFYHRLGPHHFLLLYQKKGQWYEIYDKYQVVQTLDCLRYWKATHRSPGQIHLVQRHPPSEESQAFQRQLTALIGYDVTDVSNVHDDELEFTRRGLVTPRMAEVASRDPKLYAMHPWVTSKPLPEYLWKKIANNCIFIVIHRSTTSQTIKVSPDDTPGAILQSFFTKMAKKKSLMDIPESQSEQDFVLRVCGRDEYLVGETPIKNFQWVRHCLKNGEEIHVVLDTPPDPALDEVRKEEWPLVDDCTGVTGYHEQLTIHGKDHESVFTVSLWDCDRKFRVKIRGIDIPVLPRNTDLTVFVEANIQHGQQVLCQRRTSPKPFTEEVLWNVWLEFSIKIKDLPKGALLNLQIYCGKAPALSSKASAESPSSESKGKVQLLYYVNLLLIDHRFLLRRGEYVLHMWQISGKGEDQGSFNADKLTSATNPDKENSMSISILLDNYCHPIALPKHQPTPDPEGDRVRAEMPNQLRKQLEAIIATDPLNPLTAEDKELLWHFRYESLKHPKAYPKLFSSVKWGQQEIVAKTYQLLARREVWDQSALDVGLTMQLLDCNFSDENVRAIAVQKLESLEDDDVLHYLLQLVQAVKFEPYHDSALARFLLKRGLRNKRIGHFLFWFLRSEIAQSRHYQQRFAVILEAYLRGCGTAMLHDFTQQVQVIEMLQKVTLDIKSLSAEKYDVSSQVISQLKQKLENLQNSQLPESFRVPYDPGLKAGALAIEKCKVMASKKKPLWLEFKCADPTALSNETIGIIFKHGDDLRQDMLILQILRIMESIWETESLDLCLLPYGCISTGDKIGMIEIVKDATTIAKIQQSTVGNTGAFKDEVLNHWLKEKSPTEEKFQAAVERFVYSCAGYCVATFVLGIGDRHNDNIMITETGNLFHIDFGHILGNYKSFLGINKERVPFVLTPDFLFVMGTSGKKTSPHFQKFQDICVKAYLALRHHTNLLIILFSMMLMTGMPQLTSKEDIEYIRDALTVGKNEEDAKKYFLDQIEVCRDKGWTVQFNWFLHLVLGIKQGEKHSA

Compound: C[C@H](N)C(=O)N1CCN(Cc2cc3nc(-c4cn(C)c(=O)c5[nH]ccc45)nc(N4CCOCC4)c3s2)CC1
- inhibition [1]: 19.5%
- inhibition [2]: 59.9%

Compound: CNc1cc(-c2nc(N3CCOCC3)c3sc(CN4CCN(CC5CC5)CC4)cc3n2)cn(C)c1=O
- inhibition [1]: 6%
- inhibition [2]: 9.1%

Compound: C[C@@H](O)C(=O)N1CCN(Cc2cc3nc(-c4cn(C)c(=O)c5[nH]ccc45)nc(N4CCOCC4)c3s2)CC1
- inhibition [1]: 27.4%
- inhibition [2]: 38.2%

Compound: Cn1ccc(-c2nc(N3CCOCC3)c3sc(CN4CCN(CC5CC5)CC4)cc3n2)cc1=O
- inhibition [1]: 24.1%
- inhibition [2]: 4.6%

Compound: Cn1cc(-c2nc(N3CCOCC3)c3sc(CN4CCN(CC5CC5)CC4)cc3n2)c2cn[nH]c2c1=O
- inhibition [1]: 43.5%
- inhibition [2]: 12.7%

Compound: Cn1cc(-c2nc(N3CCOCC3)c3sc(CN4CCN(CC5CC5)CC4)cc3n2)ccc1=O
- inhibition [1]: 25.7%
- inhibition [2]: 32.6%

Compound: CCS(=O)(=O)Nc1ccc(Oc2ccc(F)cc2F)c(-c2cn(C)c(=O)c3[nH]ccc23)c1 [MIVEBRESIB]
- IC50 [32]: 10 nM
- IC50 [11]: 23 nM
- IC50 [15]: 41 nM
- IC50 [33]: 14 nM
- IC50 [21]: 0.73 nM

Further lines, with some results ahead:

- inhibition [1]: 28.8%
- inhibition [2]: 35.2%
Compound: Cn1cc(-c2nc(N3CCOCC3)c3sc(CN4CCN(C(=O)CO)CC4)cc3n2)c2cc[nH]c2c1=O

- inhibition [1]: 21.5%
- inhibition [2]: 3%
Compound: CC(=O)Nc1cc(-c2nc(N3CCOCC3)c3sc(CN4CCN(CC5CC5)CC4)cc3n2)cn(C)c1=O

- IC50 [4]: 235 nM
- IC50 [7]: 158 nM
- IC50 [10]: 129 nM
- IC50 [11]: 518 nM
- IC50 [12]: 599 nM
- IC50 [14]: 303 nM
- IC50 [21]: 312 nM
- IC50 [26]: 251 nM
- IC50 [28]: 1230 nM
- IC50 [31]: 383 nM
Compound: O=c1cc(N2CCOCC2)oc2c(-c3ccc4c(c3)OCCO4)csc12
- Activity [3]: 10.4%
- Activity [5]: 1.05%
- Activity [6]: Active; More Effective Than Sf2523
- Activity [8]: Non-toxic
- viability at 1 µM [9]: 61.7%
- Activity [13]: 33.6%
- IC50 [15]: 1880 nM
- Activity [16]: 5.53%
- Activity [17]: Non-toxic
- Activity [18]: Toxic
- Activity [19]: Non-toxic
- viability at 1 µM [20]: 60.2%
- Activity [22]: Non-toxic
- Activity [23]: Non-toxic
- Activity [24]: 26.8%
- Activity [25]: Toxic
- Activity [27]: 0.61%
- inhibition in vivo at 20 mg/kg [29]: 62.3%
- Activity [30]: Non-toxic

- inhibition [1]: 19.4%
- inhibition [2]: 36%
Compound: Cn1cc(-c2nc(N3CCOCC3)c3sc(CN4CCC(O)CC4)cc3n2)c2cc[nH]c2c1=O
